According to US20180369186A1, “METHOD FOR MODULATING AUTOPHAGY AND APPLICATIONS THEREOF” (JAWAHARLAL NEHRU CENTRE FOR ADVANCED SCIENTIFIC RESEARCH, priority 2015, published 2018):
Values joined by “and” are separate entries in the source; they are usually repeats but may differ in a detail not shown here. Equal entries are not always repeated.

How the values were obtained:
α-synuclein toxicity = test: S. cerevisiae α-synuclein toxicity model, growth assay; assay type: cell-based; conditions: WT α-synuclein-EGFP strain; 50 μM
Method: To screen small molecule library LOPAC1280 in S. cerevisiae SNCA toxicity model, working plates containing 50 μM drugs in 1.5% DMSO (190 compounds/plate) are prepared in a 384 well format. WT SNCA-GFP with or without small molecules and untreated WT GFP are grown under optimized conditions (80 μl, 30° C. and 420 rpm) for 36 h in a plate reader (Varioskan Flash, Thermo Scientific) in duplicates with automatic absorbance (A600) recording every 20 min. Growth curves of untreated WT GFP and WT SNCA-GFP strains are plotted and mid to late exponential phase time point of untreated WT GFP strain is chosen as reference for data analysis. Its corresponding time point of untreated and drug treated WT SNCA-GFP strains are plotted separately in a box plot. Small molecules that rescued the growth lag by ≥3 SD units of untreated WT SNCA-GFP strain are considered as ‘Hits’.
Growth assays: In a 384 well plate, appropriate yeast strains are seeded (A600˜0.07) with and without drugs and incubated (80 μl, 30° C. and 420 rpm) in a multiplate reader (Varioskan Flash, Thermo Scientific) for 48 h with automatic absorbance (A600) recording every 20 min. Growth curves are plotted and analyzed using GraphPad Prism.
Induction of α-synuclein-EGFP aggregates: To induce α-synuclein-EGFP aggregates, the corresponding strains are inoculated in SD-Ura medium, Secondary culture is inoculated from primary inoculum and incubated till A600 reaches 0.8/ml. Cells are washed twice with sterile water and aggregates are induced by adding SG-Ura for 12-16 h.
To screen small molecule library LOPAC^1280 in S. cerevisiae α-synuclein toxicity model, working plates containing 50 μM drugs (small molecule) in 1.5% DMSO (190 compounds/plate) are prepared in a 384 well format. WT α-synuclein-EGFP with and without small molecules and untreated WT EGFP are grown under optimized conditions (80 μl, 30° C. and 420 rpm) for 36 h in a plate reader (Varioskan Flash, Thermo Scientific) in duplicates with automatic absorbance (A600) recording every 20 min.
Growth curves of untreated WT EGFP and WI α-synuclein-EGFP strains are plotted and mid to late exponential phase time point of untreated WT EGFP strain is chosen as reference for data analysis. Its corresponding time point of untreated and drug treated WT α-synuclein-EGFP strains are plotted separately in a box plot.
Appropriate yeast strains are seeded (A600 ˜0.07) with or without drugs in a 384-well plate and incubated (420 rpm, 30° C. and 80 μl) in a multiplate reader (Varioskan Flash, Thermo Scientific) for 48 h that records absorbance (A600) automatically for every 20 min. Growth curves are plotted using GraphPad Prism.

[1] = system: TH+ dopaminergic neurons in SNpc; test: MPTP mouse model: TH+ dopaminergic neurons in SNpc (stereology, densitometry, volume); assay type: in vivo, mice
Method: As described by Vernice Jackson-Lewis & Serge Przedborski (2007), 23.4 mg/kg MPTP.HCl (equivalent to 20 mg/kg free base) in 10 ml/kg body wt. of saline is administered intraperitoneally (i.p.) for 4 times at 2 h intervals.
All mice are sacrificed 9 days post MPTP administration and brains are processed for immunohistochemistry.
Mice are anaesthetized using Halothane BP (Piramal Healthcare) inhalation and perfused intracardially with normal saline followed by 4% PFA in 0.1 M phosphate buffer, pH 7.4. Brains are removed quickly and post-fixed with 4% PFA for 24 h-48 h at 4° C. Following cryoprotection in 15% and 30% sucrose, 40 μm thick coronal cryosections of midbrain are collected serially on gelatinized slides. Immunoperoxidase labelling protocol as identical to that reported. Briefly, endogenous peroxidase is quenched using H2O2 (0.1%) in methanol (70%), followed by blocking of non-specific staining by buffered solution (3%) of bovine serum albumin for 4 h at room temperature. Sections are incubated with TH primary antibody (1:500) followed by biotin conjugated secondary antibody (1:200 dilution, Vector Laboratories). Tertiary labelling is performed with avidin-biotin complex solution (1:100, Vector Laboratories). Staining is visualized using 3′-3′-diaminobenzidine (0.05%) as a chromogen in a solution of 0.1M acetate imidazole buffer (pH 7.4) and H2O2 (0.1%). Negative controls are processed identically, except that primary antibody is replaced with dilution buffer.
As described by Y. Fu et al., SNpcis delineated using the 4× objective of Olympus BX61 Microscope (Olympus) equipped with Stereo Investigator Software Version 7.2 (MicroBrightField). Stereological quantification is performed using optical fractionator probe with slight modifications(P. A. Alladi et al.). Briefly, every sixth midbrain section containing SNpc is chosen and TH^+ cells are counted under 100× objective, with a regular grid interval of 22500 μm^2 (x=150 μm, y=150 μm) and counting frame with an area of 3600 μm^2 (x=60 μm, y=60 μm) (FIG. 10B). Mounted thickness is determined at every fifth site, averaging to 25 μm. Guard zone 4 μm is applied on either side, thus providing 17 μm of z-dimension within optical dissector. The quantification is performed starting with first anterior appearance of TH^+ neurons in SNpc to caudal most part. The SNpc volume is determined by planimetry (FIG. 10C) and total numbers of neurons according to mean measured thickness are noted.
High magnification images of TH stained nigral DAergic neurons, captured for offline assessment of Tyrosine Hydroxylase (TH) enzyme expression levels=used. Expression intensity is measured using a Windows based image analysis system (Q Win V3, Leica Systems). Cumulative mean is derived from the values obtained from sampling, approximately 200 DAergic neurons per animal. Intensity output is measured on a grey scale of 0-255, where 0 equals intense staining and 255 means absence of staining.
The mice are distributed into three groups' viz., vehicle, MPTP and MPTP+XCT 790 injected respectively. The vehicle group receives intraperitoneal injections of dimethyl sulfoxide (DMSO) injections i.e. the solvent. The MPTP group receives 23.4 mg/kg MPTP.HCl in 10 ml/kg body wt. of saline is administered intraperitoneally for 4 times at 2 h interval. The MPTP+XCT 790 group mice are injected with 5 mg/kg body wt, of XCT 790 dissolved in DMSO, alongside the first MPTP injection. […]

DAergic neurons in SNpc = test: MPTP mouse model: LC3 and A11 puncta in DAergic neurons of SNpc; assay type: in vivo; conditions: MPTP treated cohort
Method: The sequential immunolabeling procedure is used to co-label the TH and LC3 and/or A11. First, the midbrain sections are equilibrated with 0.1 M PBS (pH 7.4) for 10 min and then incubated with buffered bovine serum albumin (3%) for 4 h to block non-specific epitopes. Then, the sections are incubated in rabbit anti-LC3 antibody (1:1000) and/or anti-oligomer antibody (A11, 1:1000) for 72 h at 4° C. After subsequent washes, the sections are incubated in corresponding fluorescent secondary antibody (1:200) at 4° C., overnight.
Co-labeling with TH is performed on the same sections using rabbit anti-TH antibody (1:500), followed by secondary labeling. PBST (0.01 M, pH 7.4) is used as both working and washing buffer. Sections are then mounted using Vectashield hardset mounting medium.

Atg8 = Atg8 immunolocalization in lace plant; assay type: cell-based, Aponogeton madagascariensis; conditions: two hours; same modulator concentrations as MDC; control 0.90±0.08
Method: Whole leaves are treated for two hours prior to fixation in 100% Methanol at 37° C. and then hydrophilized to 20% methanol by adding distilled water at 60° C. every two minutes for 32 minutes. Samples are then sectioned and placed on a multiwall slide and allowed to air dry for 10 minutes to facilitate membrane permeabilization. Blocking is done for 30 minutes at 37° C. with 4% low fat milk powder in 1× microtubule stabilization buffer MTSB (Modified 2× MTSB stock solution: 15 g PIPES, 1.9 g EDTA, 1.22 g MgSO4*7H2O and 2.5 g KOH—pH 7.0). Primary antibody incubation for anti-rabbit ATG8 (Agrisera, AS14 2769) is done at a 1:1000 dilution in 1× MTSB for 30 minutes at 37° C. Samples are then washed for 5 minutes, 3 times with 1× MTSB. Secondary antibody incubation with Goat anti-rabbit Dylight 488 (Agrisera AS09 633) at a 1:2000 dilution in 1× MTSB is done for 30 minutes at 37° C. and then samples are rinsed as above. Tissues are mounted in Mowiol 4-88 solution (Sigma, 81381) and scanned via confocal microscopy as mentioned above. The mean number of puncta per cell is determined using maximum intensity projections (MIPs) for each replicate. The total number of cells within a field of view are counted manually and the number of puncta are counted automatically using ImageJ.

[2] = system: lace plant (Aponogeton madagascariensis) cells; test: Lace plant leaf MDC staining of punctate structures; assay type: cell-based; conditions: 2 hours; 5 μM wortmannin, 50 μM Bay11, 1 μM concanamycin A, rapamycin, 50 μM ZPCK; control 0.99±0.12
Method: Axenic lace plant cultures are grown in magenta boxes and prepared according to Gunawardena et al. Leaves in the window stage are removed from the corm and rinsed thoroughly with distilled water prior to being sectioned into 2 mm^2 pieces. For starvation treatments, window stage leaves are removed from the plant, placed in distilled water and kept in the dark overnight.
Leaf sections are stained with monodansylcadaverine (MDC; 300 μM) (Sigma, D4008) and simultaneously treated with autophagy modulators for 2 hours in the dark. (1 hour vacuum infiltration at 15 psi). Treatment times, along with stain and modulator applications are optimized using concentration gradients followed by microscopy. The optimized concentrations are 5 μM rapamycin (Enzo Life Sciences (BML A275-0005), 5 μM wortmannin (Santa Cruz Biotechnology, sc-3505), 1 μM concanamycin A (Santa Cruz Biotechnology, sc-202111), 50 μM Bay 11 (Sigma, B5556) and 50 μM ZPCK (Sigma, 860794).
Tissue sections are then rinsed and mounted in distilled water prior to being scanned using a Nikon Eclipse Ti confocal microscope (Nikon 40X/1.30, Plan Fluor, 405 nm excitation and 450/30 nm emission). Areoles in the early phases of PCD are scanned to avoid cellular debris. The mean number of puncta are quantified for each treatment group with a minimum of four independent experiments using NIS Elements Advanced Research software. Additionally, starvation treatment leaves are also exposed to 5 μM, wortmannin, 50 μM Bay11 and 50 μM ZPCK treatments and then qualitatively assessed via confocal microscopy.

| Compound | mean number of Atg8 puncta per cell (Atg8) | mean number of punctate structures per cell (MDC) [2] | also measured |
| --- | --- | --- | --- |
| N#C/C(=C\c1ccc(-c2cc(Cl)ccc2Cl)o1)C(=O)Nc1cccc2ncccc12 [Agk2, reference compound] | – | – | rescue of growth lag due to α-synuclein toxicity (α-synuclein toxicity): rescue growth lag |
| CN1CC=C(c2ccccc2)CC1 [MPTP, methyl-4-phenyl-1,2,3,6-tetrahydropyridine, reference compound] | – | – | reduction in number and health of DA neurons, compared to control ([1]; MPTP 23 mg/kg): ~3 fold; dopaminergic neurons in SNpc lost, MPTP vs Vehicle ([1]; MPTP 23.4 mg/kg, 4 times): ~68%; increase of A11 puncta / aggregates, placebo/vehicle vs MPTP (DAergic neurons in SNpc): ~7 fold and ~6.5 fold |
| C/C=C/[C@H]1O[C@@](O)([C@@H](C)[C@H](O)[C@H](C)[C@H]2OC(=O)/C(OC)=C/C(C)=C/[C@@H](C)[C@@H](O)[C@@H](CC)[C@@H](O)[C@H](C)C/C(C)=C/C=C/[C@@H]2OC)C[C@@H](O[C@H]2C[C@@H](O)[C@H](OC(N)=O)[C@@H](C)O2)[C@@H]1C [concanamycin A] | 2.43±0.29 | 1.91±0.13 | – |
| CO[C@H]1C[C@@H]2CC[C@@H](C)[C@@](O)(O2)C(=O)C(=O)N2CCCC[C@H]2C(=O)O[C@H]([C@H](C)C[C@@H]2CC[C@@H](O)[C@H](OC)C2)CC(=O)[C@H](C)/C=C(\C)[C@@H](O)[C@@H](OC)C(=O)[C@H](C)C[C@H](C)/C=C/C=C/C=C/1C [rapamycin] | 3.52±0.09 | 2.31±0.25 | – |
| COC[C@H]1OC(=O)c2coc3c2[C@@]1(C)C1=C(C3=O)[C@@H]2CCC(=O)[C@@]2(C)C[C@H]1OC(C)=O [wortmannin] | 0.27±0.025 | 0.26±0.03 | – |
